For one experiment, the target named is T1, Human DYRK1A (Homo sapiens, UniProt Q13627).
T1 construct: purchased Invitrogen PV3997
Put plainly: DYRK1A Kinase TR-FRET (IMAP-Tb) Assay. The class given is biochemical. The settings on record: TR-FRET (IMAP-Tb); ATP 70 μM; 37° C. 60 minutes; read-out: Enzyme IC50 (μM) DYRK1A. The gist of the method: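 Recombinant human DYRK1A phosphorylated fluorescent substrate peptide (1.0 μM) with ATP in 10 mM HEPES pH 7.0, 50 mM NaCl, 5 mM MgCl2, 1 mM DTT, 1 mM NaVO4, 0.02% BSA for 60 min at 37 °C. Phosphopeptide detected by IMAP terbium TR-FRET; IC50 reported.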
For orientation: Time-resolved FRET reads energy transfer from a long-lived donor to a nearby acceptor.

In experiment [1] the test system is SW620 human colon cancer cells. Put plainly: SW620 Cell Viability Assay. The class given is cell-based. The settings on record: Homo sapiens, SW-620, 96 h, CellTiter-Glo; 4 days incubation; read-out: Cellular EC50 (μM) SW620. The protocol: Some cells (S—) were allowed to attach for 24 hrs, serum starved for 48 hrs, and then followed with drug treatments Test Compound Solutions were Prepared in Regular Corresponding Media Supplemented with Serum 2. […] Viability Assay: This assay was performed as follows: • Transfer 50 μL of test compound solution per well from the test compound plate onto the cell plate prepared in Step #1. • Mix the plate with treated cells by pipetting up and down three times with 200 μL multi-channel pipette. • Incubate the cells in 5% CO2 incubator @ 37° C. for 4 days. • Run the CellTiter-Glo™ Luminescent Cell Viability Assay.
In general terms: Cellular ATP, detected with luciferase, serves as a proxy for viable cell number.

In a further experiment the target is T2, Human DYRK1B (Homo sapiens, UniProt Q9Y463).
T2 construct: purchased Invitrogen PR8350B (former PV4649)
T2 sequence (Q9Y463 whole entry): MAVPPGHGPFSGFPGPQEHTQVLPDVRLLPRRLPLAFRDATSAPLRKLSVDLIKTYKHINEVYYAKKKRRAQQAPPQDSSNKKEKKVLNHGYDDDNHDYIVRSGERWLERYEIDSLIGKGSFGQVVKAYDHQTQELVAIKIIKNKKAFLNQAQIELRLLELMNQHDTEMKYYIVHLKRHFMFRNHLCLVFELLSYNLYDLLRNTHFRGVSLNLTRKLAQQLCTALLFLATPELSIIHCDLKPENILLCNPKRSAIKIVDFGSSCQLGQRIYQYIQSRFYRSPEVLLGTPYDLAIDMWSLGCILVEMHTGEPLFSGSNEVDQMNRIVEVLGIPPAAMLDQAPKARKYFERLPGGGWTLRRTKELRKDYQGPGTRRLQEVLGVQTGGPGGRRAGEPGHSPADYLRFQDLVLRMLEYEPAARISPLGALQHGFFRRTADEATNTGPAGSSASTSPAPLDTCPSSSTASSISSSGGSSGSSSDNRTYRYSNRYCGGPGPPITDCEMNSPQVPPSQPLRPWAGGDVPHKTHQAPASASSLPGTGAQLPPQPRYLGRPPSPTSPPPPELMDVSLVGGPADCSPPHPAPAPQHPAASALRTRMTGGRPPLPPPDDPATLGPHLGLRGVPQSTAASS
Kind of experiment: DYRK1B Kinase TR-FRET (IMAP-Tb) Assay. The class given is biochemical. The settings on record: TR-FRET (IMAP-Tb); ATP 70 μM; 37° C. 60 minutes; read-out: Enzyme IC50 (μM) DYRK1B.

For orientation: IC50 means the concentration that gives 50% inhibition. The term EC50 denotes the concentration needed to bring the measured effect to its halfway point.

Structures are written as SMILES. Structures can show the parent of a compound that is named as a salt.

Take `COc1ncc2cc(C(=O)Nc3cc(C(=O)N[C@H](CCO)c4ccccc4)ccc3Cl)c(=O)[nH]c2n1` [Example 158, (R)—N-(2-Chloro-5-(3-hydroxy-1-phenylpropylcarbamoyl)phenyl)-2-methoxy-7-oxo-7,8-dihydropyrido[2,3-d]pyrimidine-6-carboxamide]: the results for the IC50 at Human DYRK1A and at Human DYRK1B were 0.037 µM and 0.082 µM, respectively. Also, the EC50 in experiment [1] was 1.71 µM.

In the case of `O=C(NCc1cccc(Cl)c1)c1ccc(Cl)c(NC(=O)c2cc3cnc(N4CCNCC4)nc3[nH]c2=O)c1` [Example 119, N-(2-Chloro-5-(3-chlorobenzylcarbamoyl)phenyl)-7-oxo-2-(piperazin-1-yl)-7,8-dihydropyrido[2,3-d]pyrimidine-6-carboxamide hydrochloride], the IC50 was 0.044 µM at Human DYRK1A and 0.135 µM at Human DYRK1B. In addition, in experiment [1], the EC50 was determined as 0.152 µM.

On to `O=C(NCc1cccc(Cl)c1)c1ccc(Cl)c(NC(=O)c2cc3cnc(NCCCN4CCOCC4)nc3[nH]c2=O)c1` [Example 90, 2-(3-Morpholin-4-yl-propylamino)-7-oxo-7,8-dihydro-pyrido[2,3-d]pyrimidine-6-carboxylic acid [2-chloro-5-(3-chloro-benzylcarbamoyl)-phenyl]amide], for which the figures for the IC50 on Human DYRK1A and at Human DYRK1B were 0.0113 µM and 0.0523 µM, respectively. Also, in experiment [1], the EC50 is 0.312 µM.

As for `NCCC(NC(=O)c1cc(NC(=O)c2cc3cnc(N4CCOCC4)nc3[nH]c2=O)c(Cl)cc1F)c1cccc(Cl)c1` (stereo not drawn) [Example 160, 2-Morpholin-4-yl-7-oxo-7,8-dihydro-pyrido[2,3-d]pyrimidine-6-carboxylic acid {5-[3-amino-1-(3-chloro-phenyl)-propylcarbamoyl]-2-chloro-4-fluoro-phenyl}-amide], the IC50 on Human DYRK1A stood at 0.0532 µM; at Human DYRK1B, 0.0932 µM. Further, the EC50 in experiment [1] was found to be 0.219 µM.

For `CN1CCN(c2ncc3cc(C(=O)Nc4cc(C(=O)NCc5ccccc5)ccc4Cl)c(=O)[nH]c3n2)CC1` [Example 172, 2-(4-Methyl-piperazin-1-yl)-7-oxo-7,8-dihydro-pyrido[2,3-d]pyrimidine-6-carboxylic acid (5-benzylcarbamoyl-2-chloro-phenyl)-amide], the IC50 on Human DYRK1A is 0.109 µM; on Human DYRK1B, 0.208 µM. Also, the EC50 in experiment [1] was 0.49 µM.

On to `O=C(NCc1cccc(Cl)c1)c1ccc(Cl)c(NC(=O)c2cc3cnc(OCCCN4CCOCC4)nc3[nH]c2=O)c1` [Example 80, 2-(3-Morpholin-4-yl-propoxy)-7-oxo-7,8-dihydro-pyrido[2,3-d]pyrimidine-6-carboxylic acid [2-chloro-5-(3-chloro-benzylcarbamoyl)-phenyl]-amide], for which the IC50 on Human DYRK1A turned out to be 0.0046 µM; on Human DYRK1B it was 0.231 µM. The EC50 in experiment [1] came to 0.325 µM.

With `CSc1ncc2cc(C(=O)Nc3cc(C(=O)NC(CCN)c4ccccc4)ccc3Cl)c(=O)[nH]c2n1` (stereo not drawn) [Example 107, 2-Methylsulfanyl-7-oxo-7,8-dihydro-pyrido[2,3-d]pyrimidine-6-carboxylic acid [5-(3-amino-1-phenyl-propylcarbamoyl)-2-chloro-phenyl]-amide; hydrochloride], the IC50 on Human DYRK1A stood at 0.00467 µM; on Human DYRK1B, 0.0105 µM. Moreover, in experiment [1], the EC50 was determined as 0.236 µM.

As to `NCC(NC(=O)c1ccc(Cl)c(NC(=O)c2cc3cncnc3[nH]c2=O)c1)c1ccccc1` (stereo not drawn) [Example 151, N-(5-(2-Amino-1-phenylethylcarbamoyl)-2-chlorophenyl)-7-oxo-7,8-dihydropyrido[2,3-d]pyrimidine-6-carboxamide hydrochloride], the IC50 on Human DYRK1A stood at 0.061 µM; at Human DYRK1B, 0.096 µM. In addition, the EC50 in experiment [1] was determined as 4.26 µM.

Take `O=C(NCc1cccc(Cl)c1)c1ccc(Cl)c(NC(=O)c2cc3cnc(N[C@H]4CC[C@H](O)CC4)nc3[nH]c2=O)c1` [Example 94, 2-(4-Hydroxy-cyclohexylamino)-7-oxo-7,8-dihydro-pyrido[2,3-d]pyrimidine-6-carboxylic acid [2-chloro-5-(3-chloro-benzylcarbamoyl)-phenyl]amide]: the results for the IC50 on Human DYRK1A and at Human DYRK1B were 0.0245 µM and 0.0622 µM, respectively. In addition, the EC50 in experiment [1] turned out to be 1.13 µM.
